# Values quoted from earlier work, collected in US8889636B2, “Anti-microbial compositions” (Biotelliga Holdings Limited, priority 2010, dated 2014).
# Legend:
# [1] = test system: Candidia albacans; details: modest antifungal activity
# [2] = test system: HIV-1 regulatory protein and its viral RNA binding site
smiles,measurement,setting,value
CCC(C)CC(C)/C=C(/C=C(C)/C=C/C=C/C=C/C=C/C=C/c1cc2c(c(=O)o1)[C@H](O)[C@@H](O)[C@H](C(O)C(O)CO)O2)C(=O)O (some centres unmarked) [Orevactaene],MIC,[1],250 µg/mL
same,Inhibition of binding of HIV-1 regulatory protein and its viral RNA binding site,[2],found to inhibit binding
